Laboratory results reported in the supplement of paper PMC10307832.

Legend:
Experiment in all cases: relative viability (nuclei count vs DMSO), 5 days (fraction); higher = more cells survive
[1] = system: NCI-H2405
Outline: (§1)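 After 5 days of treatment, lung cancer cells in 1536-well plates were fixed and stained in a single step (final 0.05% Triton X-100, 1% formaldehyde, 1 ug/ml Hoechst) and their nuclei counted on 4× images. Treatment had been applied by pin tool the day after seeding as one drug alone or as a fixed anchor-drug dose with five library-drug doses (not always all listed) in √10 steps. Relative viability is the nuclei count of treated wells divided by that of vehicle wells, and values are medians of duplicate plates.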

[2] = system: NCI-H322M
Outline: as §1

[3] = system: LXF-289
Outline: as §1

[4] = system: NCI-H2085
Outline: as §1

[5] = system: SK-LU-1
Outline: as §1

[6] = system: LOU-NH91
Outline: as §1

[7] = system: HCC-827
Outline: as §1

[8] = system: EPLC-272H
Outline: as §1

[9] = system: NCI-H1975
Outline: as §1

[10] = system: NCI-H1666
Outline: as §1

[11] = system: SW 900
Outline: as §1

[12] = system: NCI-H2126
Outline: as §1

SMILES: C=C1C(=O)O[C@@H](CCCCCCCC)[C@@H]1C(=O)O [C-75] + N=C(N)NC(=N)NCCc1ccccc1 [Phenformin] (partner 250 µM)
- relative viability ([1]; first compound 0.08 µM): 0.387
- relative viability ([1]; first compound 0.253 µM): 0.331
- relative viability ([1]; first compound 0.8 µM): 0.405
- relative viability ([1]; first compound 2.53 µM): 0.368
- relative viability ([1]; first compound 8 µM): 0.45
- relative viability ([2]; first compound 0.08 µM): 0.749
- relative viability ([2]; first compound 0.253 µM): 0.886
- relative viability ([2]; first compound 0.8 µM): 0.781
- relative viability ([2]; first compound 2.53 µM): 0.718
- relative viability ([2]; first compound 8 µM): 0.789
- relative viability ([3]; first compound 0.08 µM): 0.504
- relative viability ([3]; first compound 0.253 µM): 0.543
- relative viability ([3]; first compound 0.8 µM): 0.514
- relative viability ([3]; first compound 2.53 µM): 0.452
- relative viability ([3]; first compound 8 µM): 0.507
- relative viability ([4]; first compound 0.08 µM): 0.827
- relative viability ([4]; first compound 0.253 µM): 0.693
- relative viability ([4]; first compound 0.8 µM): 0.629
- relative viability ([4]; first compound 2.53 µM): 0.63
- relative viability ([4]; first compound 8 µM): 0.67
- relative viability ([5]; first compound 0.08 µM): 0.52
- relative viability ([5]; first compound 0.253 µM): 0.524
- relative viability ([5]; first compound 0.8 µM): 0.515
- relative viability ([5]; first compound 2.53 µM): 0.425
- relative viability ([5]; first compound 8 µM): 0.423
- relative viability ([6]; first compound 0.08 µM): 0.715
- relative viability ([6]; first compound 0.253 µM): 0.741
- relative viability ([6]; first compound 0.8 µM): 0.612
- relative viability ([6]; first compound 2.53 µM): 0.532
- relative viability ([6]; first compound 8 µM): 0.749
- relative viability ([7]; first compound 0.08 µM): 0.428
- relative viability ([7]; first compound 0.253 µM): 0.391
- relative viability ([7]; first compound 0.8 µM): 0.38
- relative viability ([7]; first compound 2.53 µM): 0.36
- relative viability ([7]; first compound 8 µM): 0.42
- relative viability ([8]; first compound 0.08 µM): 0.33
- relative viability ([8]; first compound 0.253 µM): 0.281
- relative viability ([8]; first compound 0.8 µM): 0.276
- relative viability ([8]; first compound 2.53 µM): 0.28
- relative viability ([8]; first compound 8 µM): 0.271
- relative viability ([9]; first compound 0.08 µM): 0.403
- relative viability ([9]; first compound 0.253 µM): 0.398
- relative viability ([9]; first compound 0.8 µM): 0.389
- relative viability ([9]; first compound 2.53 µM): 0.345
- relative viability ([9]; first compound 8 µM): 0.412
- relative viability ([10]; first compound 0.08 µM): 0.586
- relative viability ([10]; first compound 0.253 µM): 0.602
- relative viability ([10]; first compound 0.8 µM): 0.56
- relative viability ([10]; first compound 2.53 µM): 0.559
- relative viability ([10]; first compound 8 µM): 0.51
- relative viability ([11]; first compound 0.08 µM): 0.642
- relative viability ([11]; first compound 0.253 µM): 0.58
- relative viability ([11]; first compound 0.8 µM): 0.513
- relative viability ([11]; first compound 2.53 µM): 0.535
- relative viability ([11]; first compound 8 µM): 0.495
- relative viability ([12]; first compound 0.08 µM): 0.505
- relative viability ([12]; first compound 0.253 µM): 0.558
